According to PubChem BioAssay AID1963833 (Molecular Pharmacology Branch, DTP, NCI, 2024):

Tested on: 883617-216-R-J1-PDC complex spheroid viability
Assay: Anticancer human tumor 883617-216-R-J1-PDC patient-derived bladder carcinoma cell line growth inhibition [POLQ]
Settings: for IC50: curve of first compound; for viability, T/C: stronger effect = lower value
Summary of the method: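 PDC + HUVEC + MSC complex spheroids; POLQ inhibitors ± partner drugs; top conc. at/near clinical Cmax, else 10 microM (SN-38 1 microM), half-log dilutions; 37 degrees C, 5% CO2.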

[1] = second compound 0.0316 µM, first compound 0.0316 µM
[2] = second compound 0.0316 µM, first compound 0.1 µM
[3] = second compound 0.0316 µM, first compound 0.316 µM
[4] = second compound 0.0316 µM, first compound 1 µM
[5] = second compound 0.1 µM, first compound 0.0316 µM
[6] = second compound 0.1 µM, first compound 0.1 µM
[7] = second compound 0.1 µM, first compound 0.316 µM
[8] = second compound 0.1 µM, first compound 1 µM
[9] = second compound 0.316 µM, first compound 0.0316 µM
[10] = second compound 0.316 µM, first compound 0.1 µM
[11] = second compound 0.316 µM, first compound 0.316 µM
[12] = second compound 0.316 µM, first compound 1 µM
[13] = second compound 1 µM, first compound 0.0316 µM
[14] = second compound 1 µM, first compound 0.1 µM
[15] = second compound 1 µM, first compound 0.316 µM
[16] = second compound 1 µM, first compound 1 µM
[17] = second compound 3.16 µM, first compound 0.0316 µM
[18] = second compound 3.16 µM, first compound 0.1 µM
[19] = second compound 3.16 µM, first compound 0.316 µM
[20] = second compound 3.16 µM, first compound 1 µM
[21] = second compound 10 µM, first compound 0.0316 µM
[22] = second compound 10 µM, first compound 0.1 µM
[23] = second compound 10 µM, first compound 0.316 µM
[24] = second compound 10 µM, first compound 1 µM
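Further: spheroids exposed to compounds for seven days before readout.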
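Wherever viability, T/C is given: 100% = DMSO vehicle control viability.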

## C=CCn1c(=O)c2cnc(Nc3ccc(N4CCN(C)CC4)cc3)nc2n1-c1cccc(C(C)(C)O)n1 + COC1C(OC(N)=O)C(O)C(Oc2ccc3c(O)c(NC(=O)c4ccc(O)c(CC=C(C)C)c4)c(=O)oc3c2C)OC1(C)C
Second compound 0.0316 µM
  IC50: 916 nM
Second compound 0.1 µM
  IC50: 811 nM
Second compound 0.316 µM
  IC50: 945 nM
Second compound 1 µM
  IC50: 889 nM
Second compound 3.16 µM
  IC50: 883 nM
Second compound 10 µM
  IC50: 820 nM
Second compound 0.0316 µM, first compound 0.00316 µM
  viability, T/C: 113%
Second compound 0.0316 µM, first compound 0.01 µM
  viability, T/C: 97.9%
[1]
  viability, T/C: 112%
[2]
  viability, T/C: 94.7%
[3]
  viability, T/C: 84.6%
[4]
  viability, T/C: 47%
Second compound 0.1 µM, first compound 0.00316 µM
  viability, T/C: 101%
Second compound 0.1 µM, first compound 0.01 µM
  viability, T/C: 91.9%
[5]
  viability, T/C: 98.9%
[6]
  viability, T/C: 120%
[7]
  viability, T/C: 85.9%
[8]
  viability, T/C: 42%
Second compound 0.316 µM, first compound 0.00316 µM
  viability, T/C: 121%
Second compound 0.316 µM, first compound 0.01 µM
  viability, T/C: 99.8%
[9]
  viability, T/C: 104%
[10]
  viability, T/C: 107%
[11]
  viability, T/C: 77.8%
[12]
  viability, T/C: 48.6%
Second compound 1 µM, first compound 0.00316 µM
  viability, T/C: 103%
Second compound 1 µM, first compound 0.01 µM
  viability, T/C: 95.2%
[13]
  viability, T/C: 105%
[14]
  viability, T/C: 112%
[15]
  viability, T/C: 92.2%
[16]
  viability, T/C: 45.2%
Second compound 3.16 µM, first compound 0.00316 µM
  viability, T/C: 106%
Second compound 3.16 µM, first compound 0.01 µM
  viability, T/C: 101%
[17]
  viability, T/C: 98.6%
[18]
  viability, T/C: 104%
[19]
  viability, T/C: 90%
[20]
  viability, T/C: 44.8%
Second compound 10 µM, first compound 0.00316 µM
  viability, T/C: 104%
Second compound 10 µM, first compound 0.01 µM
  viability, T/C: 87.1%
[21]
  viability, T/C: 105%
[22]
  viability, T/C: 91.6%
[23]
  viability, T/C: 84%
[24]
  viability, T/C: 42.8%

## COc1cccc2c1C(=O)c1c(O)c3c(c(O)c1C2=O)CC(O)(C(=O)CO)CC3OC1CC(N)C(O)C(C)O1 (centres undefined) + COC1C(OC(N)=O)C(O)C(Oc2ccc3c(O)c(NC(=O)c4ccc(O)c(CC=C(C)C)c4)c(=O)oc3c2C)OC1(C)C
Second compound 0.0316 µM
  IC50: 186 nM
Second compound 0.1 µM
  IC50: 320 nM
Second compound 0.316 µM
  IC50: 251 nM
Second compound 1 µM
  IC50: 214 nM
Second compound 3.16 µM
  IC50: 308 nM
Second compound 10 µM
  IC50: 151 nM
[1]
  viability, T/C: 62.3%
[2]
  viability, T/C: 49.8%
[3]
  viability, T/C: 45.3%
[4]
  viability, T/C: 4.36%
Second compound 0.0316 µM, first compound 3.16 µM
  viability, T/C: 0.76%
Second compound 0.0316 µM, first compound 10 µM
  viability, T/C: 0.26%
[5]
  viability, T/C: 67.3%
[6]
  viability, T/C: 59.6%
[7]
  viability, T/C: 50.8%
[8]
  viability, T/C: 6%
Second compound 0.1 µM, first compound 3.16 µM
  viability, T/C: 0.55%
Second compound 0.1 µM, first compound 10 µM
  viability, T/C: 0.43%
[9]
  viability, T/C: 70.4%
[10]
  viability, T/C: 58.2%
[11]
  viability, T/C: 47.5%
[12]
  viability, T/C: 6.74%
Second compound 0.316 µM, first compound 3.16 µM
  viability, T/C: 1.39%
Second compound 0.316 µM, first compound 10 µM
  viability, T/C: 1.91%
[13]
  viability, T/C: 73.9%
[14]
  viability, T/C: 55%
[15]
  viability, T/C: 45%
[16]
  viability, T/C: 3.27%
Second compound 1 µM, first compound 3.16 µM
  viability, T/C: 0.35%
Second compound 1 µM, first compound 10 µM
  viability, T/C: 1.2%
[17]
  viability, T/C: 61.1%
[18]
  viability, T/C: 48.6%
[19]
  viability, T/C: 50%
[20]
  viability, T/C: 4.18%
Second compound 3.16 µM, first compound 3.16 µM
  viability, T/C: 1.17%
Second compound 3.16 µM, first compound 10 µM
  viability, T/C: 0.37%
[21]
  viability, T/C: 59.5%
[22]
  viability, T/C: 50.9%
[23]
  viability, T/C: 41.5%
[24]
  viability, T/C: 5%
Second compound 10 µM, first compound 3.16 µM
  viability, T/C: 0.8%
Second compound 10 µM, first compound 10 µM
  viability, T/C: 0.3%
